Data published in patent US8383637B2, “2-amino-quinazoline derivatives useful as inhibitors of β-secretase (BACE)” (Jansssen Pharmaceutica N.V., priority 2004, dated 2013).
Read-outs that look alike come from different tables or passages of the source.

Biological target: T1, β-secretase(BACE) (Homo sapiens, UniProt P56817)
T1 construct: purchased Panvera
Assay: BACE FS1% Inhibition Assay
Assay type: biochemical
Settings: FS1 substrate; for % Inhibition (FS) 10 μM: 10 μM test compound
Method in brief: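 Percent inhibition at each tested concentration, referenced to enzyme-free blank and vehicle-only positive control. Reaction: compound and BACE (4 μg/mL working stock) mixed 20 min at room temperature before FS1 substrate (300 μg/mL working stock), then 1 h at room temperature.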

T1 sequence (P56817 46-501): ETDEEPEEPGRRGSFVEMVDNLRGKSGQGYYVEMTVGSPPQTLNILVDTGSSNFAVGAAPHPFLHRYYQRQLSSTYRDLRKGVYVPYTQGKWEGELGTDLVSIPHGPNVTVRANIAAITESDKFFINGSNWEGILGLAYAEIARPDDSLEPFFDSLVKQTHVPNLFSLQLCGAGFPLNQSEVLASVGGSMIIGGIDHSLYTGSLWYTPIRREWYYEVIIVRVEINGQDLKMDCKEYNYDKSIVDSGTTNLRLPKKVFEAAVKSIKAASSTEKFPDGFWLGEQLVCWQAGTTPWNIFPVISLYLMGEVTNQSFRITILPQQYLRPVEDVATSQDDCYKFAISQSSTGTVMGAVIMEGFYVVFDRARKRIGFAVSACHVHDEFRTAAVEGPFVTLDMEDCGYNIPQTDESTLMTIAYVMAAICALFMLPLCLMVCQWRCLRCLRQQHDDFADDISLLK

Compound | % Inhibition (FS) 0.3 μM (0.3 μM test compound) | % Inhibition (FS) 1 μM (1 μM test compound) | % Inhibition (FS) 3 μM (3 μM test compound) | also measured
CC(C)(C)C(=O)NCCN1Cc2cc(-c3ccccc3Cl)ccc2N=C1N [Compound 653] | 46% | 82% | 101% | 
CN(C(=O)c1cccc(CN2Cc3cc(OC4CCCC4)ccc3N=C2N)c1)C1CCCCC1 [Compound 520] | <30% | <30% | 33% | 
COC1CCCC(C(=O)NCCN2Cc3cc(-c4ccccc4C)ccc3N=C2N)C1 (stereo not drawn) [Compound 696] |  |  |  | % Inhibition (FS) (0.3 μM test compound): <30%; % Inhibition (FS) (1 μM test compound): 72%; % Inhibition (FS) (3 μM test compound): 104%
Cc1ccccc1-c1ccc2c(c1)CN(CCNC(=O)C1CCC1)C(N)=N2 [Compound 656] | 56% | 87% | 104% | 
CN(C(=O)c1cccc(CN2Cc3cc(Oc4cccc(-c5ccc6ccccc6n5)c4)ccc3N=C2N)c1)C1CCCCC1 [Compound 473] | <30% | <30% | <30% | 
CN(C(=O)CCC(CO)N1Cc2cc(Oc3ccccc3)ccc2N=C1N)C1CCCCC1 (stereo not drawn) [Compound 557] | <30% | <30% | <30% | 
CCCC(CCCC(=O)NC1CCCCC1)N1Cc2cc(Oc3ccccc3)ccc2N=C1N (stereo not drawn) [Compound 91] |  |  | 68% | % Inhibition (FS) 10 μM: 117%
NC1=Nc2ccc(-c3cnc4ccccc4c3)cc2CN1CCNC(=O)C1CCCC1 [Compound 671] |  |  |  | % Inhibition (FS) (0.3 μM test compound): <30%; % Inhibition (FS) (1 μM test compound): 30%; % Inhibition (FS) (3 μM test compound): <30%
NC1=Nc2ccc(Oc3ccccc3)cc2CN1CCCNC(=O)C1CC1 [Compound 143] |  |  | <30% | % Inhibition (FS) 10 μM: 32%
NC1=Nc2ccc(-c3ccc(Cl)cc3)cc2CN1CCNC(=O)C1CCCCC1 [Compound 626] | <30% | <30% | 56% | 
NC1=Nc2ccc(-c3ccccc3)cc2CN1CCNC(=O)C1CCC(C(F)(F)F)CC1 (stereo not drawn) [Compound 701] |  |  |  | % Inhibition (FS) (0.3 μM test compound): <30%; % Inhibition (FS) (1 μM test compound): <30%; % Inhibition (FS) (3 μM test compound): 54%
CC(C)(C)C(=O)NCCN1Cc2cc(-c3ccc4ccccc4c3)ccc2N=C1N [Compound 667] |  |  |  | % Inhibition (FS) (0.3 μM test compound): 33%; % Inhibition (FS) (1 μM test compound): <30%; % Inhibition (FS) (3 μM test compound): <30%
CC(C)(C)OC(=O)N1CCC(N2Cc3cc(Oc4ccccc4)ccc3N=C2N)CC1 [Compound 499, 4-(2-Amino-6-phenoxy-4H-quinazolin-3-yl)-piperidine-1-carboxylic acid tert-butyl ester] |  |  |  | inhibition at 0.3 µM (0.3 μM test compound, read-out: % Inhibition (FS) 0.3 μM): < 30%; inhibition at 1 µM (1 μM test compound, read-out: % Inhibition (FS) 1 μM): < 30%; inhibition at 3 µM (3 μM test compound, read-out: % Inhibition (FS) 3 μM): < 30%
CN(C(=O)CC(c1ccccc1)N1Cc2cc(F)ccc2N=C1N)C1CCCCC1 (stereo not drawn) [Compound 803] |  |  |  | inhibition at 0.3 µM (0.3 μM test compound, read-out: % Inhibition (FS)): < 30%; inhibition at 1 µM (1 μM test compound, read-out: % Inhibition (FS)): < 30%; inhibition at 3 µM (3 μM test compound, read-out: % Inhibition (FS)): < 30%
COc1ccc(-c2nc3ccccc3s2)c(Oc2ccc3c(c2)CN(Cc2cccc(C(=O)N(C)C4CCCCC4)c2)C(N)=N3)c1 [Compound 469] | <30% | <30% | <30% | 
CN(C)Cc1ccccc1-c1ccc2c(c1)CN(Cc1cccc(C(=O)N(C)C3CCCCC3)c1)C(N)=N2 [Compound 172] | <30% | <30% | <30% | 
CN(C(=O)c1cccc(CN2Cc3cc(-c4cccc(C(=O)O)c4)ccc3N=C2N)c1)C1CCCCC1 [Compound 163] | <30% | 33% | <30% | 
CN(C(=O)c1cccc(CN2Cc3cc(Oc4ccccc4-c4nc5ccccc5s4)ccc3N=C2N)c1)C1CCCCC1 [Compound 470] | <30% | <30% | 31% | 
NC1=Nc2ccc(Oc3c(F)cccc3F)cc2CN1CCC(=O)NC1C2CC3CC(C2)CC1C3 (stereo not drawn) [Compound 529] | <30% | <30% | 66% | 

Compound | % Inhibition (FS) 0.3 μM (0.3 μM test compound) | % Inhibition (FS) 1 μM (1 μM test compound) | % Inhibition (FS) 3 μM (3 μM test compound) | also measured
CN(C(=O)c1cccc(CN2Cc3cc(Oc4ccccc4CC(N)=O)ccc3N=C2N)c1)C1CCCCC1 [Compound 235] | <30% | 46% | <30% | 
CCCCCCCCC(CCC(=O)N(C)C1CCCCC1)N1Cc2cc(Oc3ccccc3)ccc2N=C1N (stereo not drawn) [Compound 210] | <30% | <30% | <30% | 
CN(C(=O)c1cccc(CN2Cc3cc([S+]([O-])c4ccccc4)ccc3N=C2N)c1)C1CCCCC1 (stereo not drawn) [Compound 549] | <30% | 30% | 71% | 
CC(=O)N1CCC(C(=O)NCCN2Cc3cc(C4=CCCCC4)ccc3N=C2N)CC1 [Compound 705] |  |  |  | % Inhibition (FS) (0.3 μM test compound): <30%; % Inhibition (FS) (1 μM test compound): <30%; % Inhibition (FS) (3 μM test compound): <30%
COc1ccccc1-c1ccc2c(c1)CN(CCNC(=O)CN)C(N)=N2 [Compound 490] | <30% | <30% | <30% | 
Cc1cc(C(=O)NCCN2Cc3cc(-c4cccc(C(F)(F)F)c4)ccc3N=C2N)c(C)o1 [Compound 590] | <30% | <30% | <30% | 
CC1CCC(N(C(=O)c2cccc(CN3Cc4cc(Oc5ccccc5)ccc4N=C3N)c2)C2CCC(C)CC2)CC1 (stereo not drawn) [Compound 187] | <30% | <30% | 39% | 
Cc1ccccc1-c1ccc2c(c1)CN(CCNC(=O)CC(C)C(F)(F)F)C(N)=N2 (stereo not drawn) [Compound 679] |  |  |  | % Inhibition (FS) (0.3 μM test compound): 78%; % Inhibition (FS) (1 μM test compound): 99%; % Inhibition (FS) (3 μM test compound): 103%
CCOc1cccc(Nc2ccc3c(c2)CN(Cc2cccc(C(=O)N(C)C4CCCCC4)c2)C(N)=N3)c1 [Compound 440] | <30% | 35% | 72% | 
CN(C(=O)CCC(c1ccc(-c2ccccc2)cc1)N1Cc2cc(Oc3ccccc3)ccc2N=C1N)C1CCCCC1 (stereo not drawn) [Compound 420] | <30% | <30% | 53% | 
CN(C(=O)CCC(C)(C)N1Cc2cc(Oc3ccccc3)ccc2N=C1N)C1CCCCC1 [Compound 738] |  |  |  | % Inhibition (FS) (0.3 μM test compound): 14%; % Inhibition (FS) (1 μM test compound): 28%; % Inhibition (FS) (3 μM test compound): 61%
COc1ccccc1-c1ccc2c(c1)CN(CCNC(=O)C1(C(N)=O)CC1)C(N)=N2 [Compound 488] | <30% | <30% | <30% | 
NC1=Nc2ccc(Oc3ccccc3)cc2CN1C1c2ccccc2-c2c(C(=O)N(C3CCCCC3)C3CCCCC3)cccc21 (stereo not drawn) [Compound 147] |  |  | <30% | % Inhibition (FS) 10 μM: 71%
COC(=O)[C@H]1CC[C@H](NC(=O)CC[C@@H](C2CCOCC2)N2Cc3cc(Oc4ccccc4)ccc3N=C2N)CC1 [Compound 747] |  |  |  | % Inhibition (FS) (0.3 μM test compound): 41%; % Inhibition (FS) (1 μM test compound): 74%; % Inhibition (FS) (3 μM test compound): 104%
NC1=Nc2ccc(Oc3ccccc3)cc2CN1Cc1cccc(C(=O)N2CCC3CCCCC3C2)c1 (stereo not drawn) [Compound 193] | <30% | 34% | 67% | 
CSc1ccccc1Oc1ccc2c(c1)CN(Cc1cccc(C(=O)N(C)C3CCCCC3)c1)C(N)=N2 [Compound 474] | <30% | <30% | <30% | 
COc1ccccc1-c1ccc2c(c1)CN(CCNC(=O)C1CCOCC1)C(N)=N2 [Compound 697] |  |  |  | % Inhibition (FS) (0.3 μM test compound): <30%; % Inhibition (FS) (1 μM test compound): <30%; % Inhibition (FS) (3 μM test compound): 63%
CC(=O)N1CCC(C(=O)NCCN2Cc3cc(-c4ccccc4)ccc3N=C2N)CC1 [Compound 702] |  |  |  | % Inhibition (FS) (0.3 μM test compound): <30%; % Inhibition (FS) (1 μM test compound): <30%; % Inhibition (FS) (3 μM test compound): <30%
CC(C)(C)OC(=O)NCc1cccc(CN2Cc3cc(Oc4ccccc4)ccc3N=C2N)c1 [Compound 315] | <30% | <30% | 33% | 
